The values below come from PubChem BioAssay AID328 (DTP/NCI, 2004).

The test system of the test is BDF1 mice, P388 leukemia ip, median survival T/C. Kind of test: NCI In Vivo Anticancer Drug Screen. Data for tumor model P388 Leukemia (intraperitoneal) in B6D2F1 (BDF1) mice. Conditions: endpoint: median survival time, higher = longer survival. Summed up:
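Antitumour effect was judged in vivo: survival in drug-treated mice, normalised to that of vehicle-dosed controls, gives the reported T/C.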

Where [1] appears, read: dose: 50.0 mg/kg/injection, schedule: Q01DX009 (ip), vehicle: saline with Tween-80.
Where [2] appears, read: dose: 100.0 mg/kg/injection, schedule: Q04DX003 (ip), vehicle: saline.
Where [3] appears, read: dose: 200.0 mg/kg/injection, schedule: Q04DX003 (ip), vehicle: saline.
The mark [4] stands for this setting: dose: 50.0 mg/kg/injection, schedule: Q04DX003 (ip), vehicle: saline.
Setting [5] is: dose: 100.0 mg/kg/injection, schedule: Q04DX003 (ip), vehicle: saline with Tween-80.
Where [6] appears, read: dose: 200.0 mg/kg/injection, schedule: Q04DX003 (ip), vehicle: saline with Tween-80.
Where [7] appears, read: dose: 400.0 mg/kg/injection, schedule: Q04DX003 (ip), vehicle: saline with Tween-80.
Setting [8] is: dose: 50.0 mg/kg/injection, schedule: Q01DX009 (ip), vehicle: saline.
[9] abbreviates: dose: 100.0 mg/kg/injection, schedule: Q01DX009 (ip), vehicle: saline.
Setting [10] is: dose: 200.0 mg/kg/injection, schedule: Q01DX009 (ip), vehicle: saline.
The mark [11] stands for this setting: dose: 100.0 mg/kg/injection, schedule: Q01DX009 (ip), vehicle: saline with Tween-80.
Setting [12] is: dose: 200.0 mg/kg/injection, schedule: Q01DX009 (ip), vehicle: saline with Tween-80.
The mark [13] stands for this setting: dose: 100.0 mg/kg/injection, schedule: Q04DX003 (ip), vehicle: Klucel (hydroxypropylcellulose) (HPC).
[14] abbreviates: dose: 200.0 mg/kg/injection, schedule: Q04DX003 (ip), vehicle: Klucel (hydroxypropylcellulose) (HPC).
[15] abbreviates: dose: 400.0 mg/kg/injection, schedule: Q01DX009 (ip), vehicle: saline with Tween-80.
[16] abbreviates: dose: 400.0 mg/kg/injection, schedule: Q04DX003 (ip), vehicle: Klucel (hydroxypropylcellulose) (HPC).
Where [17] appears, read: dose: 12.5 mg/kg/injection, schedule: Q01DX009 (ip), vehicle: saline.

SMILES strings stand for the structures. Values joined by “and” are separate entries in the source; they are usually repeats but may differ in a detail not shown here. Equal entries are not always repeated. Toxic doses and inconclusive results are not listed.

On to `CC(C)(C)OOC(=O)c1ccccc1O`, for which the T/C was 102 % of control (dose: 12.5 mg/kg/injection, schedule: Q04DX003 (ip), vehicle: other); 101 % of control (dose: 25.0 mg/kg/injection, schedule: Q04DX003 (ip), vehicle: other); 122 % of control under setting [1]; 101 % of control (dose: 50.0 mg/kg/injection, schedule: Q04DX003 (ip), vehicle: other); 118 % of control (dose: 100.0 mg/kg/injection, schedule: Q04DX003 (ip), vehicle: other).

For the molecule `Cc1cccc(NS(=O)(=O)c2ccc(Cl)cc2)c1C`, the T/C under setting [2] is 100 % of control; the T/C under setting [3] was 95 % of control; the T/C (dose: 400.0 mg/kg/injection, schedule: Q04DX003 (ip), vehicle: saline) is 108 % of control.

Consider `CN(C)NP(=O)(NN(C)C)N(C)C`, for which the T/C under setting [4] is 100 % of control, the T/C under setting [2] is 113 % of control and the T/C under setting [3] is 95 % of control.

For `Nc1nc(N)c2ncc(/C=C/c3ccc(Cl)c(Cl)c3)nc2n1`, the T/C was 91 % of control under setting [5], 90 % of control under setting [6] and 108 % of control under setting [7].

Regarding `O=C(C(Br)C(Br)c1ccccc1)N1CCOCC1` (configuration not stated), the T/C was 104 % of control (dose: 100.0 mg/kg/injection, schedule: Q04DX003 (ip), vehicle: saline sonified); 100 % of control (dose: 200.0 mg/kg/injection, schedule: Q04DX003 (ip), vehicle: saline sonified); 113 % of control (dose: 400.0 mg/kg/injection, schedule: Q04DX003 (ip), vehicle: saline sonified).

As for `CSc1nc(N)nc2c1ncn2C1CC(O)C(CO)O1` (configuration not stated), the T/C under setting [8] is 95 % of control; the T/C under setting [9] is 95 % of control and 101 % of control; the T/C under setting [10] is 100 % of control; the T/C (dose: 400.0 mg/kg/injection, schedule: Q01DX009 (ip), vehicle: saline) is 97 % of control.

`CCO/C=C1\SC(=S)N(c2ccc(O)cc2)C1=O`: the T/C runs as follows: under setting [1], 116 % of control; under setting [11], 116 % of control; under setting [12], 116 % of control.

Regarding `Nc1ccc2ccccc2c1N=Nc1ccc(C(O)C(N)CO)cc1` (configuration not stated), the T/C (dose: 6.25 mg/kg/injection, schedule: Q01DX009 (ip), vehicle: saline sonified) is 100 % of control; the T/C (dose: 12.5 mg/kg/injection, schedule: Q01DX009 (ip), vehicle: saline sonified) is 112 % of control; the T/C (dose: 25.0 mg/kg/injection, schedule: Q01DX009 (ip), vehicle: saline sonified) is 100 % of control.

Consider `COC(=O)/C=C1/C(=O)N(C)c2ccccc21`, for which the T/C was 122 % of control under setting [1], 98 % of control under setting [11] and 104 % of control under setting [12].

For the molecule `C/C(=N\Nc1ccc([N+](=O)[O-])cc1[N+](=O)[O-])C(F)(F)F`, the T/C by setting is: (dose: 44.0 mg/kg/injection, schedule: Q01DX009 (ip), vehicle: other) 95 % of control; (dose: 66.0 mg/kg/injection, schedule: Q01DX009 (ip), vehicle: other) 100 % of control; (dose: 100.0 mg/kg/injection, schedule: Q01DX009 (ip), vehicle: other) 100 % of control; under setting [13], 100 % of control; (dose: 150.0 mg/kg/injection, schedule: Q01DX009 (ip), vehicle: other) 95 % of control; under setting [12], 115 % of control. Further, the T/C is 100 % of control under setting [14], 100 % of control under setting [15] and 100 % of control under setting [16].

As for `CC(=O)C1=C(O)C2(O)C(=O)c3c(c(C)c4ccc(C)c(O)c4c3O)CC2C(N)C1=O` (configuration not stated), the T/C (dose: 1.56 mg/kg/injection, schedule: Q01DX009 (ip), vehicle: saline with Tween-80) was 109 % of control; the T/C (dose: 3.13 mg/kg/injection, schedule: Q01DX009 (ip), vehicle: saline with Tween-80) was 104 % of control; the T/C (dose: 6.25 mg/kg/injection, schedule: Q01DX009 (ip), vehicle: saline with Tween-80) is 118 % of control.

In the case of `CC(N)Cc1c(Cl)cc(N(C)C)cc1Cl` (configuration not stated), the T/C runs as follows: (dose: 3.13 mg/kg/injection, schedule: Q01DX009 (ip), vehicle: saline) 100 % of control; (dose: 6.25 mg/kg/injection, schedule: Q01DX009 (ip), vehicle: saline) 100 % of control; under setting [17], 102 % of control.

Consider `CCC1CN1P(=O)(Oc1ccc2ccccc2c1)N1CC1CC` (configuration not stated), for which the T/C was 245 % of control under setting [6] and 86 % of control under setting [7].

As for `COc1ccc(Cc2cc3cc(OC)c(OC)cc3cn2)cc1OC`, the T/C under setting [5] was 110 % of control; the T/C under setting [12] is 103 % of control; the T/C under setting [6] was 112 % of control; the T/C (dose: 300.0 mg/kg/injection, schedule: Q01DX009 (ip), vehicle: saline with Tween-80) is 114 % of control; the T/C under setting [15] was 103 % of control; the T/C under setting [7] is 116 % of control. For the same molecule, the T/C (dose: 500.0 mg/kg/injection, schedule: Q01DX009 (ip), vehicle: saline with Tween-80) was 103 % of control.

With `CC(=O)OCc1cc(=O)n(C)c2c3c4c(cc12)c(C)cc(=O)n4CO3`, for the setting “dose: 100.0 mg/kg/injection, schedule: Q01DX001 (ip), vehicle: Klucel (hydroxypropylcellulose) (HPC)”, the T/C is 120 % of control.

Take `CC1C[N+](C)(C)N=C1[O-]` (configuration not stated): the T/C reads like this: (dose: 100.0 mg/kg/injection, schedule: Q01DX001 (ip), vehicle: saline) 109 % of control; (dose: 200.0 mg/kg/injection, schedule: Q01DX001 (ip), vehicle: saline) 90 % of control; (dose: 400.0 mg/kg/injection, schedule: Q01DX001 (ip), vehicle: saline) 109 % of control.

Consider `CCOC(=O)c1cnn(-c2ccccc2)c1N`, for which the T/C (dose: 6.25 mg/kg/injection, schedule: Q04DX003 (ip), vehicle: saline) is 110 % of control; the T/C under setting [17] is 102 % of control; the T/C (dose: 12.5 mg/kg/injection, schedule: Q04DX003 (ip), vehicle: saline) was 107 % of control; the T/C (dose: 25.0 mg/kg/injection, schedule: Q01DX009 (ip), vehicle: saline) was 96 % of control; the T/C (dose: 25.0 mg/kg/injection, schedule: Q04DX003 (ip), vehicle: saline) was 100 % of control; the T/C under setting [1] was 243 % of control. Further, the T/C is, setting by setting: under setting [8], 96 % of control and 104 % of control; under setting [4], 100 % of control; (dose: 100.0 mg/kg/injection, schedule: Q01DX009 (ip), vehicle: Klucel (hydroxypropylcellulose) (HPC)) 104 % of control; under setting [11], 241 % of control; under setting [9], 104 % of control and 105 % of control; under setting [13], 95 % of control. The T/C was 95 % of control under setting [2]; 95 % of control (dose: 200.0 mg/kg/injection, schedule: Q01DX009 (ip), vehicle: Klucel (hydroxypropylcellulose) (HPC)); 91 % of control under setting [12]; 86 % of control under setting [10]; 100 % of control under setting [14]; 86 % of control (dose: 400.0 mg/kg/injection, schedule: Q01DX009 (ip), vehicle: Klucel (hydroxypropylcellulose) (HPC)). Moreover, the T/C under setting [16] was 87 % of control.
